In patent US20110045092A1, “CASEIN […] ENCAPSULATING […] ACTIVE AGENTS AND USES THEREOF” (priority 2008, published 2011):
Where a name gives a salt, the structure may show the parent alone. Values belong to the compound of their own block, whether it stands above or below them.

What was measured:
Zeta potential analysis = assay type: physicochemical; details: concentration range studied; PBS pH 7.0
Experimental: Particle size distribution, mean Gaussian diameter, and zeta potential were determined by a combined dynamic light scattering (DLS) and zeta potential analyzer (NICOMP 380, Particle Sizing Systems (Agilent Technologies, Inc.), Santa Barbara, Calif., USA) at 25° C.
Zeta potential was measured in PBS solutions without NaCl, under a 3 V/cm e-field, using phase analysis mode. The zeta potential was calculated from the electrophoretic mobility (EM) using the Smoluchowski model (which is a reasonable approximation given that the radius of the particles (a) was around 125 nm, and the ionic strength during the EM measurement was calculated to be about 50 mM, i.e. the Debye length (κ^−1) was around 1.4 nm, so that the product κ^−1a=92>>1).

[1] = Visual appearance of drug solution with and without β-CN; assay type: physicochemical
From the text: In order to evaluate the visual appearance of the tested drug when encapsulated within the β-CN system as compared to the non-encapsulated drug solubilized at a similar concentration, in PBS and DMSO (i.e. without the addition of β-CN), photographs were taken of both solutions and their appearance was compared.

β-CN [2] = target: T1, β-CN (Bos taurus, UniProt P02666); assay: Trp 143 fluorescence quenching of β-CN by drug; assay type: binding, bovine; details: for Kd: Trp 143 of β-CN quenched by drug, 1 mg/ml β-CN in PBS pH 7.0, emission 332 nm, read-out: Calculated Kd
T1 construct: β-CN from bovine milk (C6905, purity 90%); purchased Sigma-Aldrich Israel Ltd. C6905; host or cells: bovine milk
T1 sequence (P02666 16-224): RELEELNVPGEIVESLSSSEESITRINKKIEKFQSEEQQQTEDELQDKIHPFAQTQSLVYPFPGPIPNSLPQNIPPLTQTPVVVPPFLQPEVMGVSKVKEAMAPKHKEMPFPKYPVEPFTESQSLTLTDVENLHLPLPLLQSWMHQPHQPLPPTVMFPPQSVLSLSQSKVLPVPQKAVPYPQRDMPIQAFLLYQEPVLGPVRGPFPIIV
Experimental: Tryptophan (Trp) Fluorescence:
Trp 143 is located in the main hydrophobic domain of β-CN. Quenching of protein fluorescence due to energy transfer from this Trp residue to a bound ligand serves to determine the binding affinity.
β-CN-drug interaction was studied by monitoring the changes in the Trp fluorescence emission of β-CN upon addition of the drug. Trp fluorescence was determined using an excitation at 287 nm and emission was detected at 332 nm, with slit widths of 1 nm, using the Fluorolog 3-22 spectrofluoreineter. Intrinsic fluorescence of the Trp residues of β-CN was measured before and after addition of different amounts of each drug ranging between drug: β-CN molar ratio of 0.2:1 to 12:1 at 1 mg/ml β-CN. Changes in Trp fluorescence were used to evaluate the binding of the drug to β-CN. The apparent dissociation constant and the number of drug molecules that are involved in binding of one β-CN molecule were calculated from plots of the fluorescence intensity at 332 nm, expressed as the percentage of the fluorescence of the drug-free β-CN vs. the added drug concentration. The data was analyzed using Matlab (MathWorks), by means of the following equations: […]
where F is the fluorescence intensity at a given added ligand (drug) concentration; F0 the fluorescence intensity at the beginning of the titration; F1 the fluorescence at the end of the titration; [PF] the concentration of the free β-CN; [LF] the concentration of the free ligand, drug; [PL] the concentration of the β-CN-drug complex; Kd and Ka are the dissociation and association constants respectively (Christiaenset al. 2002 European Journal of Biochemistry 269 [12]:2918-2926).
Emission spectra of pure 1 mg/ml β-CN vs. those of drug encapsulated in 1mg/ml at 4:1 drug: β-CN molar ratio, were collected at Trp excitation wavelength 287 nm, using the Fluorolog 3-22 spectrofluorometer.

[3] = cited from earlier work
β-CN [4] = target: T1, β-CN; assay: Mitoxantrone fluorescence quenching by β-CN; assay type: binding, bovine; details: 42 μM mitoxantrone
Experimental: The β-CN-mitoxantrone interaction was further studied by monitoring the changes in the mitoxantrone fluorescence emission upon addition of β-CN. For this purpose a 3-D fluorescence spectra analysis of mitoxantrone was performed using the Fluorolog 3-22. Mitoxantrone fluorescence emission was measured using 609 nm and 675 nm excitation and emission, respectively, and slit widths of 1 nm. Intrinsic fluorescence of 42 μM mitoxantrone was measured before and after addition of different amounts of β-CN. The β-CN concentration range was 0.1-3.8 mg/ml. The apparent dissociation constant and the number of β-CN molecules bound per mitoxantrone molecule were calculated from plots of the fluorescence intensity at 675 nm expressed as the percentage of the fluorescence of the β-CN-free mitoxantrone vs. the added β-CN concentration. Data were analyzed as detailed herein above for Trp quenching.

[5] = 504 μM drug in PBS with 4.55-5.6% DMSO

- zeta potential of drug in PBS without β-CN (Zeta potential analysis): around −30 mV
- visual appearance, without β-CN [1, 5]: turbid, unstable and aggregated solution
Compound: CC(=O)O[C@@]12CO[C@@H]1C[C@H](O)[C@@]1(C)C(=O)[C@H](O)C3=C(C)[C@@H](OC(=O)[C@H](O)[C@@H](NC(=O)OC(C)(C)C)c4ccccc4)C[C@@](O)([C@@H](OC(=O)c4ccccc4)[C@H]21)C3(C)C [Docetaxel, Docetaxel trihydrate]

- visual appearance, without β-CN ([1]; 84 μM drug in PBS and 0.8% DMSO): turbid, unstable and aggregated system
- change of β-CN Trp-143 emission upon encapsulation (β-CN [2]; 4:1 Paclitaxel:β-CN, 1 mg/ml β-CN, excitation 287 nm): decrease in emission intensity
Compound: CC(=O)O[C@H]1C(=O)[C@@]2(C)[C@H]([C@H](OC(=O)c3ccccc3)[C@]3(O)C[C@H](OC(=O)[C@H](O)[C@@H](NC(=O)c4ccccc4)c4ccccc4)C(C)=C1C3(C)C)[C@]1(OC(C)=O)CO[C@@H]1C[C@@H]2O [Paclitaxel, paclitaxel]

- visual appearance, without β-CN [1, 5]: turbid, unstable and aggregated solution
Compound: CCc1c2c(nc3ccc(OC(=O)N4CCC(N5CCCCC5)CC4)cc13)-c1cc3c(c(=O)n1C2)COC(=O)[C@]3(O)CC [irinotecan, irinotecan hydrochloride trihydrate]
- pKa [3]: 8.1

Compound: O=C1c2c(O)ccc(O)c2C(=O)c2c(NCCNCCO)ccc(NCCNCCO)c21 [mitoxantrone, Mitoxantrone dihydrochloride]
- Log P [3]: higher than 2
- over-all mitoxantrone emission quenched by β-CN, up to % of its initial intensity (β-CN [4]; plateau at 0.7 mg/ml β-CN): up to 65%
- Kd (β-CN [4]; mitoxantrone fluorescence quenched by β-CN, β-CN 0.1-3.8 mg/ml, excitation 609 nm, emission 675 nm, model fit, read-out: Calculated Kd): 0.726 µM
- Kd (β-CN [2]; excitation 287 nm, model fit): 8.43 µM
- over-all Trp emission after quenching, of its initial intensity (β-CN [2]; plateau at mitoxantrone:β-CN 6:1, 1 mg/ml β-CN): 20%

Compound: vinblastine sulfate salt
- pKa [3]: 5.5
- Kd (β-CN [2]; excitation 287 nm, model fit): 50.9 µM
- n (moles of quencher per moles of fluorophore) (β-CN [2]; drug molecules per β-CN molecule, Trp quenching, model fit): 5.25±0.57
- initial overall Trp emission intensity quenched (β-CN [2]; vinblastine:β-CN 0.2:1 to 10:1 at 1 mg/ml β-CN): About 80%
